Reference: patent US8278090B1, “Heterotrophic cultivation of hydrocarbon-producing microalgae” (Solazyme, Inc., priority 2008, dated 2012)
Where “and” joins values, the source holds several entries; their conditions need not be identical. Equal values may be shown once.

What was measured:
Type in all cases: cell-based
[1] = tested on: Botryococcus braunii (strain UTEX 572); assay: Media component screening in heterotrophic culture; conditions: UTEX 572, 0.2% component + 3% glucose, 6-well plates, dark, room temperature, 16 days
Description: Media components incorporated in soil bacteria media were tested in heterotrophic culture of Botryococcus braunii (strain UTEX 572). For each component tested, 5 ml of B11 media (as described in Example 2 above) supplemented with 3% glucose (Fisher) were prepared in 6-well plates. Additionally, the media was supplemented with 0.2% of one of the following soil bacteria media components: dextrin (MP Biomedicals), malt extract (MP Biomedicals), traders yeast (Pharmamedia), corn meal, corn steep powder (Marcor), whole dead yeast (Engevita), casein type M (Marcor), casein type B (Marcor), tomato paste, molasses, soy hydrolysate (MP Biomedicals), soy flour (Arrowhead Mills), corn starch (Sigma), and maltose (Fisher). Wells were inoculated and cultures were grown at room temperature in the dark for 16 days. […] All media were filter sterilized.
The cells from each condition were transferred into 150 mL T150 flasks containing 50 mL B11 media with 3% glucose and 0.2% of their respective supplemental component. Cultures were grown in the dark for one week at 28° C. Cells were pelleted and fresh media (100 mL) were added to the cultures. The cultures were allowed to grow for another two weeks in the dark at 28° C. and then were collected and dry cell weights were measured. For most conditions, the addition of a 0.2% supplemental component increased cell growth as compared to glucose control. […]

[2] = tested on: Botryococcus braunii UTEX 2441; assay: Heterotrophic growth with glucose, 24 well plate, dark or light; conditions: for DCW g/L / DCW mg/ml.: 4 weeks
Description: (§1) Modified BG-11 (17.65 mM NaNO3, 0.23 mM K2PO4, 0.3 mM MgSO4.7H2O, 0.25 mM CaCl2.2H2O, 0.189 mM Na2CO3, 0.03 mM citric acid monohydrate, 0.023 mM ferric ammonium citrate, 0.046 mM H3BO3, 9.15 μM MnCl2.4H2O, 0.77 μM ZnSO4.7H2O, 0.32 μM CuSO4.5H2O, 0.21 μM CoCl2.6H2O, 1.62 μM NaMoO4.2H2O, 2.69 μM Na2EDTA, 9 mg/l Tricine, 1.99 μM Thiamine-HCl, 0.006 μM Cyanocobalamine, 0.044 μM Calcium Pantothenate, 0.29 μM p-aminobenzoic acid, soil water).

[3] = tested on: Botryococcus braunii UTEX 572; assay: as above; conditions: for DCW g/L / DCW mg/ml.: 4 weeks
Description: as §1

[4] = tested on: Botryococcus braunii N-836; assay: Complex nitrogen sources on heterotrophic growth with glucose; conditions: N-836, 1% glucose in BG11, dark, 4 weeks
Description: (§2) The following experiment was done with UTEX 572, UTEX 2441, and N-836 in 20 ml of BG11 plus:
(§3) 1% glucose+2 g/L hydrolyzed casein

[5] = tested on: Botryococcus braunii UTEX 2441; assay: as above; conditions: UTEX 2441, 1% glucose in BG11, dark, 4 weeks
Description: as §2, §3

[6] = tested on: Botryococcus braunii UTEX 572; assay: as above; conditions: UTEX 572, 1% glucose in BG11, dark, 4 weeks
Description: as §2, §3

[7] = tested on: Botryococcus braunii N-836; assay: Different fixed carbon sources on heterotrophic growth, visual score; set-up: key to heterotrophic growth score, 0.1% / heterotrophic growth score, 0.5% / heterotrophic growth score, 1%: Growth was scored with +'s by visual examination of the cultures; ++: Growth was scored with +'s by visual examination of the cultures; +++: Growth was scored with +'s by visual examination of the cultures; ++++: Growth was scored with +'s by visual examination of the cultures; +++++: Growth was scored with +'s by visual examination of the cultures
Description: (§4) All carbon sources were tested at three different concentrations; 0.1%, 0.5% and 1%. Cultures were grown in 24 well plates for 4 weeks in the dark in 1 ml BG11 plus fixed carbon. Control cultures were grown in BG-11 media under phototrophic conditions without a fixed carbon source. Growth was scored with +'s by visual examination of the cultures (see Table 7). UTEX 572 grew best in glucose, however there was also growth on mannose, galactose and fructose. UTEX 2441 preferred mannose in the dark but there was some growth in galactose, fructose and glycerol.

[8] = tested on: Botryococcus braunii UTEX 2441; assay: as above; set-up: key to heterotrophic growth score, 0.1% / heterotrophic growth score, 0.5% / heterotrophic growth score, 1%: Growth was scored with +'s by visual examination of the cultures; ++: Growth was scored with +'s by visual examination of the cultures; +++: Growth was scored with +'s by visual examination of the cultures; ++++: Growth was scored with +'s by visual examination of the cultures; +++++: Growth was scored with +'s by visual examination of the cultures; conditions: 4 weeks
Description: as §4

[9] = tested on: Botryococcus braunii UTEX 572; assay: as above; set-up: key to heterotrophic growth score, 0.1% / heterotrophic growth score, 0.5% / heterotrophic growth score, 1%: Growth was scored with +'s by visual examination of the cultures; ++: Growth was scored with +'s by visual examination of the cultures; +++: Growth was scored with +'s by visual examination of the cultures; ++++: Growth was scored with +'s by visual examination of the cultures; +++++: Growth was scored with +'s by visual examination of the cultures
Description: as §4

[10] = tested on: Botryococcus braunii (UTEX 572); assay: High surface to volume heterotrophic cultivation; conditions: UTEX 572, 3% glucose, dark, stepwise scale-up
Description: In order to develop a reproducible, scalable process for the heterotrophic cultivation of B. braunii, a low-volume, slow-mixing heterotrophic procedure was developed. Botryococcus braunii (UTEX 572) cultures were transferred from solid media plates into 6-well plates using B-11 media supplemented with 3% glucose and was grown for one week at room temperature in the dark. The cultures were then transferred into 50 mL of fresh media in a 150 mL T-flask and agitated at 40 rpm on a plate shaker for one week at room temperature in the dark. The cultures were then transferred into 100 mL of fresh media in a 500 mL T-flask and agitated at 30 rpm with a two-inch throw for one week at room temperature in the dark. Finally, the cultures were transferred into 350 mL of fresh media in a Fernbach flask and agitated at 30 rpm with a two-inch throw for one week at room temperature in the dark. In one set of cultures, the cells were transferred into 500 mL of fresh media in a Fernbach flask (instead of 350 mL). Dry cell weights were collected for all cultures and compared. Cultures that were grown in a final volume of 350 mL of media reached a DCW of about 9 grams per liter.

OC[C@H]1O[C@H](O[C@H]2[C@H](O)[C@@H](O)C(O)O[C@@H]2CO)[C@H](O)[C@@H](O)[C@@H]1O (mixture of isomers) [maltose]
growth by visual observation as compared to glucose only control [1]: better growth

O=C[C@H](O)[C@@H](O)[C@H](O)[C@H](O)CO [glucose]
DCW g/L ([2]; UTEX 2441, 0.1% glucose, dark): 0.3 g/L
DCW mg/ml. ([2]; UTEX 2441, 0.1% glucose, dark): 0.3 mg/mL
DCW g/L ([2]; UTEX 2441, 0.2% glucose, dark): 0.3 g/L
DCW mg/ml. ([2]; UTEX 2441, 0.2% glucose, dark): 0.3 mg/mL
DCW g/L ([2]; UTEX 2441, 0.5% glucose, dark): 0.1 g/L
DCW mg/ml. ([2]; UTEX 2441, 0.5% glucose, dark): 0.1 mg/mL
growth in the dark at 1% glucose compared with 0.1 and 0.5% ([2]; UTEX 2441, 1% glucose, dark): best growth
DCW g/L ([2]; UTEX 2441, 1.0% glucose, dark): 0.7 g/L
DCW mg/ml. ([2]; UTEX 2441, 1.0% glucose, dark): 0.7 mg/mL
growth with glucose in the dark ([2]; UTEX 2441, BG11 plus glucose, dark): clearly grew
growth with glucose in the light ([2]; UTEX 2441, BG11 plus glucose, light): no growth
DCW g/L ([3]; UTEX 572, 0.1% glucose, dark): 0.2 g/L
DCW mg/ml. ([3]; UTEX 572, 0.1% glucose, dark): 0.2 mg/mL
DCW g/L ([3]; UTEX 572, 0.2% glucose, dark): 0.2 g/L
DCW mg/ml. ([3]; UTEX 572, 0.2% glucose, dark): 0.2 mg/mL
DCW g/L ([3]; UTEX 572, 0.5% glucose, dark): 0.4 g/L
DCW mg/ml. ([3]; UTEX 572, 0.5% glucose, dark): 0.4 mg/mL
growth in the dark at 1% glucose compared with 0.1 and 0.5% ([3]; UTEX 572, 1% glucose, dark): best growth
growth with glucose in the dark ([3]; UTEX 572, BG11 plus glucose, dark): clearly grew
growth with glucose in the light ([3]; UTEX 572, BG11 plus glucose, light): no growth
DCW [4]: 0.267 g/L
DCW mg/3 m1. [4]: 0.8 mg/3 m1
DCW [5]: 0.067 g/L
DCW mg/3 m1. [5]: 0.2 mg/3 m1
DCW [6]: 0.20 g/L and 0.33 g/L
DCW mg/3 m1. [6]: 0.6 mg/3 m1 and 1.0 mg/3 m1
heterotrophic growth score, 0.1% ([7]; N-836, 0.1% carbon source in 1 ml BG11, dark, 4 weeks): ++
heterotrophic growth score, 0.5% ([7]; N-836, 0.5% carbon source in 1 ml BG11, dark, 4 weeks): ++
heterotrophic growth score, 1% ([7]; N-836, 1% carbon source in 1 ml BG11, dark, 4 weeks): +++
heterotrophic growth on carbon source, in words ([7]; N-836, dark): heterotrophic growth
heterotrophic growth score, 0.1% ([8]; UTEX 2441, 0.1% carbon source in 1 ml BG11, dark): ++
heterotrophic growth score, 0.5% ([8]; UTEX 2441, 0.5% carbon source in 1 ml BG11, dark): ++
heterotrophic growth score, 1% ([8]; UTEX 2441, 1% carbon source in 1 ml BG11, dark): ++++
heterotrophic growth score, 0.1% ([9]; UTEX 572, 0.1% carbon source in 1 ml BG11, dark, 4 weeks): +++
heterotrophic growth score, 0.5% ([9]; UTEX 572, 0.5% carbon source in 1 ml BG11, dark, 4 weeks): ++++
heterotrophic growth score, 1% ([9]; UTEX 572, 1% carbon source in 1 ml BG11, dark, 4 weeks): +++++
heterotrophic growth on carbon source, in words ([9]; UTEX 572, dark): grew best
DCW ([10]; final volume 350 mL): about 9 grams per liter
DCW ([10]; final volume 500 mL): about 3 grams per liter
